The values below are quoted from earlier work in US11753385B2, “Method for producing kakeromycin and derivatives thereof” (OP BIO FACTORY CO., LTD., priority 2015, dated 2023).

In one data set the test system is pathogens of candidiasis. The note with it: background statement, in words only.
The subject of data set [1] is PANC-1 pancreas cancer cell.

For `CC=C(Cc1ccccc1)C12CC(O)CCN1O2` (stereo not drawn) [kakeromycin], the “antibacterial activity against pathogens of candidiasis” value with pathogens of candidiasis is on record as “strong antibacterial activity”. The cytotoxicity result (with HepG2 liver cancer cell; in data set [1]) was “shows cytotoxicity” in each case.
